The record followed here is patent publication US8298513B2, “Hexatriene-β-carbonyl compound” (Osaka University, priority 2007, dated 2012).

Data set [1] deals with T1, human serum albumin (HSA) (Homo sapiens, UniProt P02768). Kind of data set: Labeling of human serum albumin (HSA), fluorescence spectrum of the reaction product. The note with it: phosphate buffer pH 7.4, 40° C. for 1 hour; 420 nm excitation light. The method, then:
HSA was dissolved in a phosphate buffer (0.1 M, pH 7.4) to adjust the concentration to 5.0×10^−5 M. 20 μl of a phosphate buffer (0.1 M, pH 7.4) was added to 200 μl of the solution for dilution, and the mixture was pre-incubated at 40° C. for 5 minutes. A 1,4-dioxane (20 μl) solution of Compound 50 (50 μg, 0.1 μmol) was added to the mixture, and the mixture was incubated at 40° C. for 1 hour. 300 μl of 1% acetic acid was added to the reaction solution to quench the reaction, and the reaction solution was purified by gel filtration and lyophilized.
HSA was dissolved in a phosphate buffer solution (0.1 M, pH 7.4) to adjust the concentration to 5.0×10^−5 M. 20 μl of a phosphate buffer solution (0.1 M, pH 7.4) was added to 200 μl of the solution for dilution, and the mixture was pre-incubated at 40° C. for 5 minutes. A 1,4-dioxane (20 μl) solution of Compound 56 (50 μg, 0.1 μmol) was added to the mixture, and the mixture was incubated at 40° C. for 1 hour. 300 μl of 1% acetic acid was added to the reaction solution to quench the reaction, and the reaction solution was purified by gel filtration and lyophilized.

The nature of data set [2]: PET imaging of the biodistribution of 68Ga-DOTA-labeled somatostatin in a rat. It is filed as in vivo, rat (Wistar rat). The note with it: tail vein, given as 68Ga-DOTA-labeled somatostatin (Compound 41), accumulated 3 to 7 minutes after administration. The method, then:
A DMF solution (40 μl) of Compound 8 produced in Example 3 described above was added to a solution of somatostatin (0.17 mg, 0.10 μmol) in Otsuka distilled water (154 μl) and put into a vortex generator. The reaction mixture was left to stand at room temperature for 30 minutes and then lyophilized, thereby giving the titled Compound 9.
A 1 N hydrochloric acid solution (400 μl) of ^68GaCl3 eluted from a ^68Ga/^68Ge generator was purified, neutralized with aqueous 4 N NaOH and then added to Compound 9 described above. After incubation at 40° C. for 10 minutes, it was injected into a rat (Wistar rat 8W, male, 235 g) (1.68 mCi). Propofol was administered continuously at a rate of […] into the tail vein of the rat for tranquilization, and a PET tracer was administered into the tail vein of the rat.

Data set [3] has as its target T1, human serum albumin (HSA). The experiment in a line: Labeling of human serum albumin (HSA) with Compound 8, 57Co incorporation, gamma ray counting. The note with it: room temperature 30 minutes, PBS, gamma ray count. The method, then:
HSA (0.5 mg, 7.5 nmol was dissolved in a PBS buffer solution (1.5 ml) to prepare a 5 μM HSA solution. 320 μl (1.6 nmol) of the HSA solution was introduced into each of 3 Eppendorf tubes. 1.2 μl (40 nmol), 2.3 μl (80 nmol) and 11.8 μl (0.4 μmol) of a DMF solution (3.38×10^−2M) of Compound 8 described above were added to the respective Eppendorf tubes. 160 μl (0.8 nmol) of the 5 μM HSA solution was added to each of the Eppendorf tubes, and 11.8 μl (0.4 μmol) of a DMF solution (3.38×10^−2M) of Compound 8 described above was added to each tube. The reaction mixtures all were left to stand at room temperature for 30 minutes. Purification was performed using a filter with a 30000 molecular weight cut off manufactured by Millipore, followed by concentration. The protein concentration in the contents of each Eppendorf tube was measured, 5 μl of the contents of each Eppendorf tube were added to other Eppendorf tubes, and a 0.25 M ammonium acetate buffer solution (15 μl) and a 400 μM ^57Co solution (10 μl) were added thereto. The reaction mixtures were incubated at 41° C. for 3 hours. 10 μl of a 0.01 M 1,4,7,10-tetraazacyclododecane-1,4,7,10-tetraacetic acid (DOTA) solution was added to each reaction mixture, and incubation was performed at 41° C. for 10 minutes. […] The silica gel plates were cut in half lengthwise, and gamma rays were counted with a gamma ray counter using the plates.

The test system of data set [4] is anti-GFP antibody. The experiment in a line: Labeling of anti-GFP antibody with Compound 8, GFP fluorescence measurement after immune precipitation. The note with it: 10 to 1250 equivalents, room temperature 10 minutes; GFP fluorescence excitation 395 nm, emission 509 nm. The method, then:
To a PBS buffer solution (81 μl) was added 27 μl of an anti-GFP antibody (20 μg/μl, PBS buffer solution, manufactured by Nacalai Tesque, Inc.) for dilution. The diluted anti-GFP solution was added to 4 Eppendorf tubes each in an amount of 3.3 μM, 8 μl, 2.6×10^−11 mol, and Compound 8 was added in a proportion of 10 equivalents (24 μM, 5 μl, 2.6×10^−10 mol), 50 equivalents (0.12 mM, 5 μl, 1.3×10^−9 mol), 250 equivalents (0.61 mM, 5 μl, 6.6×10^−9 mol) and 1250 equivalents (12 mM, 2.7 μl, 3.3×10^−8 mol) relative to the anti-GFP antibody. The mires were left to stand for 10 minutes at room temperature, and then a GFP antigen (cultured from Escherichia coli, PBS buffer solution, 1000 μl) was added and reacted at 4° C. for 1 hour. Thereafter, Protein G (500 μg, manufactured by GE Healthcare Ltd.) was added to the mixtures and left to stand at the same temperature for 30 minutes. Then, labeled anti-GFP (Compound 24) was purified by subjecting the mixtures to immune precipitation. GFP fluorescence measurement (excitation: 395 nm, emission: 509 nm) was performed on each anti-GFP.

T1 sequence (P02768 25-609): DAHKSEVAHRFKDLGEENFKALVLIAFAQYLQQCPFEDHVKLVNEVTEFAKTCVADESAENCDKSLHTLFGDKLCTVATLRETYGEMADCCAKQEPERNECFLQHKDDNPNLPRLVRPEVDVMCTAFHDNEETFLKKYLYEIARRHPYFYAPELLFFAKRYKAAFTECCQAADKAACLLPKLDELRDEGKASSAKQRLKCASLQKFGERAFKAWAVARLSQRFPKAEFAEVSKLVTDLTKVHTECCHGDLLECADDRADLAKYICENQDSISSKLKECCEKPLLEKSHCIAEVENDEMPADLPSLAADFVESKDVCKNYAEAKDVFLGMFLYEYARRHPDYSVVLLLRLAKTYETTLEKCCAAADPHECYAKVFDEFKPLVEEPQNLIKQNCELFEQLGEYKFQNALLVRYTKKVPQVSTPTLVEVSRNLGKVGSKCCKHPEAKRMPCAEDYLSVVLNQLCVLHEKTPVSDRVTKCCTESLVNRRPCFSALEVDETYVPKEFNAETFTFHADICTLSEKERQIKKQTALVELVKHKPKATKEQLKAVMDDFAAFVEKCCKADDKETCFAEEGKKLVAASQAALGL

`CCN(CC)c1ccc2cc(C(=O)NCCOCCOC(=O)C(/C=C/c3ccc(NC(=O)CCCCCNc4ccc([N+](=O)[O-])c5nonc45)cc3)=C/C=O)c(=O)oc2c1` [Compound 56, 2-(2-(7-diethylaminocoumarin)-3-carbonylaminoethoxy)ethyl (E,E)-4-oxo-2-((6-(N-(7-nitrobenz-2-oxa-1,3-diazol-4-yl)amino)hexanamide)styryl)but-2-enoate]: in data set [1], the “fluorescence of the reaction product with HSA” value is reported as “intense fluorescence was observed near 460 nm”. As to `CCN(CC)c1ccc2cc(C(=O)NCCOCCOC(=O)C(/C=C/c3ccccc3)=C/C=O)c(=O)oc2c1` [Compound 50, 2-(2-(7-diethylaminocoumarin)-3-carbonylaminoethoxy)ethyl (E,E)-4-oxo-2-styrylbut-2-enoate], in data set [1], the “fluorescence of the reaction product with HSA” value is given as “intense fluorescence was observed near 460 nm”. Turning to `C[C@H](N)C(=O)NCC(=O)N[C@H]1CSSC[C@@H](C(=O)O)NC(=O)[C@H](CO)NC(=O)[C@H]([C@@H](C)O)NC(=O)[C@H](Cc2ccccc2)NC(=O)[C@H]([C@@H](C)O)NC(=O)[C@H](CCCCN)NC(=O)[C@H](Cc2c[nH]c3ccccc23)NC(=O)[C@H](Cc2ccccc2)NC(=O)[C@H](Cc2ccccc2)NC(=O)[C@H](CC(N)=O)NC(=O)[C@H](CCCCN)NC1=O` [somatostatin], in data set [2], the “distribution in the living body (PET image, FIG. 3)” value is on record as “distributed across the heart of the rat”. With `CCOC(=O)C(/C=C/c1ccc(NC(=O)CNC(=O)CN2CCN(CC(=O)O)CCN(CC(=O)O)CCN(CC(=O)O)CC2)cc1)=C/C=O` [Compound 8, 10-(2-(2-(4-((1E,3E)-3-ethoxycarbonyl-5-oxopenta-1,3-dienyl)phenylamino)-2-oxoethylamino)-2-oxoethyl)-1,4,7,10-tetraazacyclododecane-1,4,7-triacetic acid], in data set [3], the “labeling reaction with HSA (incorporation into HSA, FIG. 1)” value is “promptly reacts with somatostatin”. Also, the “labeling reaction with anti-GFP antibody (incorporation into antibody, FIG. 2)” value in data set [4] is on record as “promptly reacts with the anti-GFP antibody”.
